Test results: the NIST ThermoML archive (doi:10.1016/j.jct.2003.08.017)

Tests used:
[1] = Molar enthalpy of transition or fusion; conditions: Crystal
[2] = molar heat capacity at constant pressure; conditions: 101.33 kPa, Small (less than 1 g) adiabatic calorimetry
[3] = Crystal

OCC1c2ccccc2-c2ccccc21 [9-fluorenemethanol]
Conditions | Molar enthalpy of transition or fusion [kcal/mol] | Triple point temperature [K]
[1] | 6.279 | –
[3] | – | 376.57

[2]
Conditions | molar heat capacity at constant pressure [J/K/mol]
78.5 K, Crystal | 74.59
79.9 K, Crystal | 75.63
82.26 K, Crystal | 77.22
84.64 K, Crystal | 78.94
85.94 K, Crystal | 79.76
87.24 K, Crystal | 80.69
88.54 K, Crystal | 81.69
89.84 K, Crystal | 82.71
91.05 K, Crystal | 83.42
92.27 K, Crystal | 84.33
93.81 K, Crystal | 85.44
95.68 K, Crystal | 86.83
97.47 K, Crystal | 88.34
99.25 K, Crystal | 89.58
101.04 K, Crystal | 90.8
102.74 K, Crystal | 92
104.45 K, Crystal | 93.28
106.15 K, Crystal | 94.37
107.78 K, Crystal | 95.55
110.05 K, Crystal | 97.38
112.81 K, Crystal | 99.34
115.57 K, Crystal | 101.09
118.25 K, Crystal | 103.07
120.84 K, Crystal | 105.05
123.44 K, Crystal | 107.15
126.04 K, Crystal | 109.39
128.55 K, Crystal | 111.1
131.07 K, Crystal | 112.95
133.5 K, Crystal | 114.39
135.94 K, Crystal | 116.5
138.38 K, Crystal | 118.22
140.73 K, Crystal | 120.24
143.08 K, Crystal | 121.92
145.44 K, Crystal | 123.49
147.79 K, Crystal | 125.56
150.06 K, Crystal | 127.26
152.34 K, Crystal | 129.25
154.61 K, Crystal | 130.86
156.8 K, Crystal | 132.44
158.99 K, Crystal | 134.22
161.18 K, Crystal | 136.08
163.38 K, Crystal | 137.61
165.57 K, Crystal | 139.23
167.68 K, Crystal | 141.01
169.87 K, Crystal | 142.68
171.98 K, Crystal | 144.26
174.09 K, Crystal | 145.97
176.12 K, Crystal | 147.81
178.23 K, Crystal | 149.54
180.26 K, Crystal | 151.27
182.29 K, Crystal | 153.26
184.32 K, Crystal | 155.07
186.35 K, Crystal | 156.65
188.38 K, Crystal | 158.43
190.32 K, Crystal | 160.03
192.27 K, Crystal | 161.75
194.22 K, Crystal | 163.44
196.17 K, Crystal | 165.02
198.12 K, Crystal | 167.02
200.06 K, Crystal | 168.41
201.93 K, Crystal | 170.12
203.88 K, Crystal | 172.09
205.75 K, Crystal | 173.99
207.69 K, Crystal | 175.77
209.56 K, Crystal | 177.8
211.43 K, Crystal | 179.56
213.21 K, Crystal | 181.31
215.08 K, Crystal | 183.23
216.95 K, Crystal | 185.04
218.73 K, Crystal | 186.49
220.52 K, Crystal | 188.39
222.38 K, Crystal | 190.43
224.17 K, Crystal | 192.38
225.96 K, Crystal | 194.23
227.66 K, Crystal | 195.8
229.45 K, Crystal | 197.65
231.15 K, Crystal | 199.09
232.86 K, Crystal | 201.07
234.64 K, Crystal | 202.79
236.35 K, Crystal | 203.84
238.05 K, Crystal | 205.56
239.75 K, Crystal | 207.12
241.46 K, Crystal | 208.72
243.08 K, Crystal | 210.03
244.71 K, Crystal | 211.22
246.41 K, Crystal | 212.28
248.12 K, Crystal | 213.72
249.74 K, Crystal | 215.05
251.36 K, Crystal | 216.5
253.07 K, Crystal | 218.21
254.69 K, Crystal | 219.66
256.31 K, Crystal | 220.83
257.94 K, Crystal | 221.75
259.56 K, Crystal | 223.22
261.18 K, Crystal | 224.27
262.73 K, Crystal | 225.73
264.35 K, Crystal | 226.9
265.97 K, Crystal | 228.35
267.6 K, Crystal | 229.68
269.14 K, Crystal | 231.11
270.68 K, Crystal | 232.43
272.14 K, Crystal | 233.76
273.68 K, Crystal | 235.07
276.77 K, Crystal | 237.44
280.83 K, Crystal | 240.46
284.15 K, Crystal | 243.34
287.89 K, Crystal | 246.4
291.22 K, Crystal | 248.63
294.46 K, Crystal | 252.05
297.55 K, Crystal | 255.07
300.71 K, Crystal | 258.24
303.8 K, Crystal | 261.53
306.96 K, Crystal | 265.22
310.05 K, Crystal | 268.37
313.05 K, Crystal | 272.08
316.13 K, Crystal | 275.5
319.22 K, Crystal | 279.32
322.22 K, Crystal | 283
325.23 K, Crystal | 287.49
328.23 K, Crystal | 292.62
331.15 K, Crystal | 297.89
334.07 K, Crystal | 303.26
337 K, Crystal | 308.39
339.84 K, Crystal | 314.22
342.68 K, Crystal | 320.06
345.44 K, Crystal | 326.47
348.03 K, Crystal | 332.27
350.71 K, Crystal | 338.6
353.31 K, Crystal | 344.72
355.99 K, Crystal | 351.11
358.59 K, Crystal | 357.3
360.94 K, Crystal | 363.05
378.41 K, Liquid | 50.2
379.63 K, Liquid | 50.76
381.41 K, Liquid | 51.75
383.59 K, Liquid | 52.7
385.71 K, Liquid | 53.72
387.58 K, Liquid | 54.67
389.69 K, Liquid | 55.38
